From US20220142995A1, “DUAL ATM AND DNA-PK INHIBITORS FOR USE IN ANTI-TUMOR THERAPY” (XRAD Therapeutics, Inc., priority 2019, published 2022)

Test system: ATM and DNA-PK kinases
Assay: Immunoblot of radiation-induced phosphorylation of ATM, DNA-PKcs and KAP1 in MCF7 cells
Type: cell-based, human
Details: MCF7 cells, 20, 100, 500, 1000 nM, 30 min pre-treatment, 10 Gy, harvested 1 h later
Protocol: Cell Culture. The MCF-7 human breast carcinoma cell line and HCT116 p53 wild-type and HCT116 p53−/− cell lines were obtained from ATCC. […]
Immunoblotting. […] One hour after IR, cells were lysed in RIPA buffer ([…], pH 8.0, 150 mM NaCl, 0.1% SDS, 0.5% sodium deoxycholate, 1% IGEPAL® CA-630 (Sigma, 18896) for 20 min at 4° C. in the presence of protease and phosphatase inhibitor cocktails (Roche, #04693159001 & #04906837001). Cell lysates were centrifuged at 13,200 g for 10 min at 4° C. and supernatants were analyzed for protein content using BCA assay (Pierce™ BCA Protein Assay Kit, cat #23227, ThermoFisher Waltham, Mass. 02451) and equal amounts of protein/lane were used for subsequent immunoblot analyses. Proteins were denatured by adding NuPAGE LSD Sample Buffer [4×] […]

CC(C)NCCOc1ncc(-c2cc3c4c(cnc3cc2F)N(C)C(=O)C42CCC2)cc1NS(C)(=O)=O [Compound 569, N-(5-(7′-Fluoro-3′-methyl-2′-oxo-2′,3′-dihydrospiro[cyclobutane-1,1′-pyrrolo[2,3-c]quinolin]-8′-yl)-2-(2-(isopropylamino)ethoxy)pyridin-3-yl)methanesulfonamide]
inhibition of radiation-induced phosphorylation of DNA-PKcs Ser2056, ATM Ser1981 and KAP1 ser824: potent dose-dependent inhibition
